Laboratory results taken from paper PMC6010089, “Isothiocyanates: cholinesterase inhibiting, antioxidant, and anti-inflammatory activity” (Journal of Enzyme Inhibition and Medicinal Chemistry, 2018).
Read-outs that look alike come from different tables or passages of the source.

Tests used:
COX-2 [1] = biological target: T1, COX-2 (Homo sapiens, UniProt P35354); assay: Cayman human COX-2 inhibitor screening kit, PGF2alpha ELISA; assay type: biochemical; conditions: read-out: COX-2 / Inhibition (%)^b
T1 construct: gene PTGS2
T1 sequence (P35354 18-604): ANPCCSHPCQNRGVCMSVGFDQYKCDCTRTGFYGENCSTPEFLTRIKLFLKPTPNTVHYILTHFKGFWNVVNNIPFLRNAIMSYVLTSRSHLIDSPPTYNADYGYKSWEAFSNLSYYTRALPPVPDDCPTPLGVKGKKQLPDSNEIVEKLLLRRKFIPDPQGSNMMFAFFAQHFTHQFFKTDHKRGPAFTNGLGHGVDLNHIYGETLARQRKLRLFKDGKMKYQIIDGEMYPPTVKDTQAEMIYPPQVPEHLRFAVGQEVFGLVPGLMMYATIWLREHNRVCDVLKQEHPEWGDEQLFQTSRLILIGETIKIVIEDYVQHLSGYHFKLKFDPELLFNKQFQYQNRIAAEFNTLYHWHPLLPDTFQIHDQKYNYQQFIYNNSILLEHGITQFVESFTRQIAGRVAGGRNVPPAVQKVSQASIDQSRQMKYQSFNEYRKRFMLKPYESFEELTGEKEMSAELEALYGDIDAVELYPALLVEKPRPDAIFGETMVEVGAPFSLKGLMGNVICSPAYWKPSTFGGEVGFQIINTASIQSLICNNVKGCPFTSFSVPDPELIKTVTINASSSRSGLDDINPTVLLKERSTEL

[2] = biological target: T2, butyrylcholinesterase (BChE) (Equus caballus, UniProt P81908); assay: modified Ellman assay; assay type: biochemical; design: from equine serum
T2 sequence (P81908 whole entry): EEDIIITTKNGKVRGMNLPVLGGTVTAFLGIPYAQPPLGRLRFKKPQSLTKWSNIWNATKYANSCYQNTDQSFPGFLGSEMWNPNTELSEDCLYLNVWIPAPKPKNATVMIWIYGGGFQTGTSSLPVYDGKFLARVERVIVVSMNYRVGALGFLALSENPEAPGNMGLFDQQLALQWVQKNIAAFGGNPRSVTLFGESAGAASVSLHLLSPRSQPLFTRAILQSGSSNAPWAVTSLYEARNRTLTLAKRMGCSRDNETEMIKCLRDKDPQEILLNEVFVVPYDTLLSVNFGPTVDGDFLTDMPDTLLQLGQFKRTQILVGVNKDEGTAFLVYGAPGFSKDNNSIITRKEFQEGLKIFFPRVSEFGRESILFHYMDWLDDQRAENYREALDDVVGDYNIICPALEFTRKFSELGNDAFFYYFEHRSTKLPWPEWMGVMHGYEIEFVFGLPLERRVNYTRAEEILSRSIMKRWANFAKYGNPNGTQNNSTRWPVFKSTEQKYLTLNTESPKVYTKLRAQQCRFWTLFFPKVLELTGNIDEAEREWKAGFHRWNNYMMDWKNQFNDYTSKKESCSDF

[3] = biological target: T3, acetylcholinesterase (AChE) (Electrophorus electricus, UniProt O42275); assay: modified Ellman assay; assay type: biochemical; design: electric eel, type V-S
T3 sequence (O42275 24-633): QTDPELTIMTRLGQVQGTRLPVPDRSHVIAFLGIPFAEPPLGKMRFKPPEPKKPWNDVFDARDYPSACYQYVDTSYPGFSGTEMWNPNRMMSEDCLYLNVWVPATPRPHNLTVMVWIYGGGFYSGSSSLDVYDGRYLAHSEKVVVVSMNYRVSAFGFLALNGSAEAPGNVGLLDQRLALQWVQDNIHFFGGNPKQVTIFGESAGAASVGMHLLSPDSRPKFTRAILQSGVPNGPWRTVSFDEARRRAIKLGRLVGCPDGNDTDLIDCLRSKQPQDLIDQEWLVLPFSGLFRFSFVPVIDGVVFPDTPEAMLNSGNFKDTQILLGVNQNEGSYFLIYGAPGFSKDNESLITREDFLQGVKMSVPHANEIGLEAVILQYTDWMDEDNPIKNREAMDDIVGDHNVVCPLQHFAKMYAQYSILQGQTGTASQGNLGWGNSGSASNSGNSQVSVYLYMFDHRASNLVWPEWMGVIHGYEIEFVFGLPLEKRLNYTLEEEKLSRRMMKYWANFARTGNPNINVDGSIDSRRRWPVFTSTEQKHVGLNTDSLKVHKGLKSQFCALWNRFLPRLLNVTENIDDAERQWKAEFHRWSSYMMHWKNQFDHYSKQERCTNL

[4] = biological target: T3, acetylcholinesterase (AChE); assay: biochemical; conditions: read-out: AChE / Inhibition (%)^a
COX-2 [5] = biological target: T1, COX-2; assay: biochemical; design: COX-2 inhibitor screening kit, 10 min preincubation, arachidonic acid 2 min, PGF2alpha ELISA at 412 nm; conditions: read-out: COX-2 / Inhibition (%)^b
Description: To analyse the inhibition of the COX-2 enzyme activity mediated by the selected ITCs, the COX-2 (human) inhibitor screening assay kit from Cayman was used. In summary, the COX-2 enzyme was incubated with the samples (having final concentration in the assay of 50 μM, in 96% ethanol) for 10 min at 37 °C and subsequently the reaction was initiated by adding arachidonic acid and incubating the mixture for 2 min at 37 °C. The background tubes correspond to inactivated COX-2 enzyme obtained after keeping the tubes containing enzymes in boiling water for 3 min along with sample solvent. Enzyme catalysis was blocked by adding saturated stannous chloride solution. Prostaglandin (PGF2α) release was quantified using ELISA at 412 nm. Indomethacin solution (having final concentration in the assay of 10 μM, in 96% ethanol) was used as a positive control.

[6] = biological target: T2, butyrylcholinesterase (BChE); assay: biochemical; conditions: read-out: BChE / Inhibition (%)^a

Structure (SMILES) | inhibition at 50 µM (COX-2 [1]) | inhibition at 1140 µM [2] | IC50 [3] | inhibition at 1140 µM [4] | inhibition at 50 µM (COX-2 [5]) | inhibition at 1140 µM [6] | IC50 ([3]; read-out: AChE / IC50)
S=C=Nc1ccccc1 [compound 1, phenyl isothiocyanate] | 98.9 ± 0.3% |  |  |  |  |  | 
Cc1ccc(N=C=S)cc1 [compound 5, 4-Methylphenyl ITC] |  | 40.7 ± 0.7% | 930 µM | 58.4 ± 1.1% | 13.6 ± 0.8% |  | 
COc1ccccc1N=C=S [compound 7, 2-Methoxyphenyl ITC] | 99 ± 0.7% |  |  | 57 ± 1.5% |  | 19.5 ± 0.1% | 570 µM
COc1cccc(N=C=S)c1 [compound 8, 3-Methoxyphenyl ITC] |  |  |  | 61.4 ± 1.6% |  |  | 1000 µM
CSCCCN=C=S [compound 11, 3-(Methylsulfanyl)propyl ITC] | 48 ± 0.3% |  |  | 4.4 ± 0.7% |  | 15.4 ± 0.3% | 
